Data from ChEMBL document CHEMBL4619719, “A-ring and E-ring modifications of the cytotoxic alkaloid Luotonin A: Synthesis, computational and biological studies” (Bioorg Med Chem, 2020).
Activity calls are given as the source filed them. The rule behind the calls is not given here.

Key:
SW480 [1] = assay: Antiproliferative activity against human SW480 cells assessed as reduction in cell viability at 20 uM measured after 72 hours by MTT assay relative to control; assay type: functional
HL-60 [2] = assay: Antiproliferative activity against human HL60 cells assessed as reduction in cell viability at 20 uM measured after 72 hrs by MTT assay relative to control; assay type: functional
[3] = biological target: T1, DNA topoisomerase 1 (Homo sapiens) (UniProt P11387); assay: Inhibition of human TOP1 assessed as decrease in relaxation of supercoiled DNA using supercoiled plasmid DNA pGEM1 as substrate at 100 uM preincubated for 30 mins by SDS gel electrophoresis method; set-up: scale not given: the % may be the effect or the level left
T1 sequence (whole entry): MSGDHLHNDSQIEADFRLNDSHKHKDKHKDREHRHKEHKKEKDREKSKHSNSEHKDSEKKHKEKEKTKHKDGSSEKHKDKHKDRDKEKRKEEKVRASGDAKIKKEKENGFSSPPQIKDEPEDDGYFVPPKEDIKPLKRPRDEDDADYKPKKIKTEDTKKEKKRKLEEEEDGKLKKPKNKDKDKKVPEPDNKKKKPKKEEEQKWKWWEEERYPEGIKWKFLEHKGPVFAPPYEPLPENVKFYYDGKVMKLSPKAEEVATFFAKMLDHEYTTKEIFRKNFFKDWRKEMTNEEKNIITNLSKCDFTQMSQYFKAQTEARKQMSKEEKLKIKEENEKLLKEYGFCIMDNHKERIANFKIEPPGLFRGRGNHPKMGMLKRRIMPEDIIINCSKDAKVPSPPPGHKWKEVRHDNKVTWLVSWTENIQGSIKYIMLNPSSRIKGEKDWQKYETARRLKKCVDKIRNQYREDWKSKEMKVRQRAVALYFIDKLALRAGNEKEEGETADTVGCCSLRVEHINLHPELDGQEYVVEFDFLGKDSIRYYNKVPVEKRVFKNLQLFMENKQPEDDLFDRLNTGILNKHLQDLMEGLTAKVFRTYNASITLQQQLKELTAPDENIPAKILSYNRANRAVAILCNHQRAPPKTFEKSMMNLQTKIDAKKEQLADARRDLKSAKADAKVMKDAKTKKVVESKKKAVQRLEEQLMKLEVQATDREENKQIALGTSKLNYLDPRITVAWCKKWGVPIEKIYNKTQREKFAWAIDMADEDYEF

[4] = biological target: T1, DNA topoisomerase 1 (Homo sapiens); assay: Inhibition of human TOP1 assessed as decrease in relaxation of supercoiled DNA using supercoiled plasmid DNA pGEM1 as substrate at 1 uM preincubated for 30 mins by SDS gel electrophoresis method; set-up: scale not given: the % may be the effect or the level left
[5] = biological target: T1, DNA topoisomerase 1 (Homo sapiens); assay: Inhibition of human TOP1 assessed as decrease in relaxation of supercoiled DNA using supercoiled plasmid DNA pGEM1 as substrate at 10 uM preincubated for 30 mins by SDS gel electrophoresis method; set-up: scale not given: the % may be the effect or the level left
SW480 [6] = assay: Antiproliferation activity against human SW480 cells assessed as reduction in cell viability measured after 72 hours by MTT assay; assay type: functional, cell-based; conditions: SW480, 72 h
SW480 [7] = assay: Induction of cell cycle arrest in human SW480 cells assessed as accumulation in G2/M phase at 2 to 4 uM for 72 hrs by propidium iodide staining based flow cytometric analysis; assay type: functional
SW480 [8] = assay: Induction of cell death in human SW480 cells assessed as accumulation of large nuclei at 2 uM incubated for 72 hrs by Hoechst […] staining based fluorescence microscopic method; assay type: functional
SW480 [9] = assay: Induction of cell death in human SW480 cells assessed as accumulation of large cells at 2 uM incubated for 72 hrs by Hoechst […] staining based fluorescence microscopic method; assay type: functional
SW480 [10] = assay: Induction of apoptosis in human SW480 cells assessed as activation of caspases preincubated for 72 hrs followed by addition of fluorescent pan-caspase substrate incubated for 90 mins by fluorescence based assay; assay type: functional, cell-based
SW480 [11] = assay: Induction of cell cycle arrest in human SW480 cells assessed as S phase cell cycle arrest at 2 to 4 uM incubated for 72 hrs by propidium iodide staining based flow cytometric analysis; assay type: functional
HL-60 [12] = assay: Induction of cell cycle arrest in human HL60 cells assessed as accumulation in G2/M phase at 2 to 4 uM 24 hrs by propidium iodide staining based flow cytometric analysis; assay type: functional
HL-60 [13] = assay: Induction of apoptosis in human HL60 cels assessed as activation of caspases preincubated for 24 hrs followed by addition of fluorescent pan-caspase substrate incubated for 90 mins by fluorescence based assay; assay type: functional, cell-based
HL-60 [14] = assay: Antiproliferation activity against human HL60 cells assessed as reduction in cell viability measured after 72 hrs by MTT assay; assay type: functional, cell-based; conditions: HL-60, 72 h
SW480 [15] = assay: Induction of cell cycle arrest in human SW480 cells assessed as accumulation of cells at S phase at 20 to 35 nM incubated for 72 hrs by propidium iodide staining based flow cytometric analysis; assay type: functional
HL-60 [16] = assay: Induction of cell cycle arrest in human HL60 cells assessed as accumulation of cells at S phase at 20 to 35 nM incubated for 24 hrs by propidium iodide staining based flow cytometric analysis; assay type: functional
SW480 [17] = assay: Induction of cell death in human SW480 cells assessed as accumulation of large cells incubated for 72 hrs by Hoechst […] staining based fluorescence microscopic method; assay type: functional
SW480 [18] = assay: Induction of cell death in human SW480 cells assessed as accumulation of large nuclei incubated for 72 hrs by Hoechst […] staining based fluorescence microscopic method; assay type: functional
HL-60 [19] = assay: Induction of cell cycle arrest in human HL60 cells assessed as accumulation of cells at G2 phase incubated for 24 hrs by propidium iodide staining based flow cytometric analysis; assay type: functional
HL-60 [20] = assay: Induction of cell cycle arrest in human HL60 cells assessed as accumulation of cells at G2 phase at 20 to 35 nM incubated for 24 hrs by propidium iodide staining based flow cytometric analysis; assay type: functional

Nc1cccc2cc3c(nc12)-c1nc2ccccc2c(=O)n1C3
fold change (FC) (SW480 [1]): 0.58 | fold change (FC) (HL-60 [2]): 0.02

COc1cc(OC)c2cc3c(nc2c1)-c1nc2ccc(I)cc2c(=O)n1C3
fold change (FC) (SW480 [1]): 0.99 | fold change (FC) (HL-60 [2]): 0.83

O=c1c2ccccc2nc2n1Cc1cc3ccccc3nc1-2 [LUOTONIN A]
Activity [3]: 16.3% | Activity [4]: 2.1% | Activity [5]: 2.6% | fold change (FC) (SW480 [1]): 0.91 | fold change (FC) (HL-60 [2]): 0.83

COc1cc(OC)c2cc3c(nc2c1)-c1nc2ccc(Br)cc2c(=O)n1C3
fold change (FC) (SW480 [1]): 0.89 | fold change (FC) (HL-60 [2]): inactive

COc1ccc2nc3c(cc2c1)Cn1c-3nc2ccc(Br)cc2c1=O
fold change (FC) (SW480 [1]): inactive | fold change (FC) (HL-60 [2]): 0.82

COc1cc(OC)c2cc3c(nc2c1)-c1nc2ccc(N)cc2c(=O)n1C3
fold change (FC) (SW480 [1]): 0.98 | fold change (FC) (HL-60 [2]): 0.73

Nc1ccc2nc3c(cc2c1)Cn1c-3nc2ccccc2c1=O
fold change (FC) (SW480 [1]): 0.24 | fold change (FC) (HL-60 [2]): 0.26

O=c1c2ccccc2nc2n1Cc1cc3cccc(F)c3nc1-2
fold change (FC) (SW480 [1]): 0.88 | fold change (FC) (HL-60 [2]): 0.61

Nc1ccc2nc3n(c(=O)c2c1)Cc1cc2cccc(N)c2nc1-3
IC50 (SW480 [6]): 2030 nM | Activity (SW480 [7]): Active | Activity (SW480 [8]): Active | Activity (SW480 [9]): Active | Activity [3]: 12.6 to 13% | Activity (SW480 [10]): inactive | Activity [4]: 2.6% | Activity (SW480 [11]): inactive | Activity [5]: 9 to 9.2% | Activity (HL-60 [12]): Active | fold change (FC) (SW480 [1]): 0.31 | fold change (FC) (HL-60 [2]): 0.01 | Activity (HL-60 [13]): Active | IC50 (HL-60 [14]): 820 nM

CC[C@@]1(O)C(=O)OCc2c1cc1n(c2=O)Cc2cc3ccccc3nc2-1 [CAMPTOTHECIN]
Activity (SW480 [15]): Active | Activity (HL-60 [16]): Active | IC50 (SW480 [6]): 210 nM | Activity [3]: 26.3% | Activity (SW480 [17]): inactive | Activity (SW480 [18]): inactive | Activity [4]: 2.1% | Activity [5]: 6% | fold change (FC) (SW480 [1]): 0.3 | Activity (HL-60 [19]): Dose-dependent effect | fold change (FC) (HL-60 [2]): 0 | IC50 (HL-60 [14]): 18 nM | Activity (HL-60 [20]): inactive
